From US20230103444A1 (The Regents of the University of Colorado, a Body Corporate, priority 2020, published 2023)
Values after ≈ are worked out from the molar mass of the structure shown.

Assays:
DLD1CHD1L-EV cells = experiment: DNA damage by γ-H2AX immunofluorescence; type: cell-based, human; conditions: low CHD1L expressing cells
Description: (§1) DLD1^CHD1L-OE cells were seeded into a 96-well PerkinElmer Cell Carrier plate and allowed to adhere overnight. Cells were then treated with the appropriate compound at 10 μM (0.5% DMSO) or with CHD1L inhibitor in combination SN-38 (1 μM), oxaliplatin (10 μM), and etoposide (10 μM). Cells were treated for 6 h. Media was aspirated and cells were washed with cold PBS. Cells were then fixed with 3% paraformaldehyde for 15 min at room temperature, fixed cells were washed with PBS three times. Cells were blocked for 1 hour at room temperature in 5% BSA, 0.3% Triton X-100 in PBS. Cells were then immunostained with phospho-(S139)-g-H2AX rabbit mAb using a 1:800 dilution in 1% BSA, 0.3% Triton X-100 in PBS at 4° C. overnight. Primary antibody was aspirated and cells were washed with PBS. Cells were incubated for 2 h at room temperature with goat anti-rabbit Alexa Fluor Plus™ 647 fluorescent secondary antibody at a concentration of 5 μg/mL in 1% BSA, 0.3% Triton X-100 in PBS. Cells were then washed with PBS, Hoechst 33342 stain was diluted to a concentration of 1:1000 in PBS, and added to cells for 15 min at room temperature. Cells were then imaged using a 20× water objective on the Opera Phenix™ HCS imaging system (PerkinElmer). Synergy was determined using the coefficient of drug interaction (CDI) equation, CDI=(A+B)/(AB). Synergy was defined in these experiments with a CDI<0.8. Additivity was 0.8-1.2 and antagonism was defined by a CDI>1.2.
(§2) γ-H2AX DNA damage combination studies with irinotecan (SN38). CHD1L inhibitor 6 alone and in combination with SN38 was assessed for DNA damage as previously reported [Abbott et al., 2020; Abraham et al., 2019]. Using DLD1 colorectal cancer cells that have low CHD1L endogenous expression and DLD1 cells engineered to overexpress CHD1L, DNA damage studies were conducted measuring the immunofluorescence of γ-H2AX, a well-established biomarker of DNA damage [Ji et al., 2017; Ivashkevich et al., 2012]. […] Media was aspirated and cells were washed with cold PBS. Cells were then fixed with 3% paraformaldehyde for 15 min at room temperature and washed with PBS three times. Cells were blocked for 1 hour at room temperature in 5% BSA, 0.3% Triton X-100 in PBS. Cells were then immunostained with phospho-(S139)-γ-H2AX rabbit mAb using a 1:800 dilution in 1% BSA, 0.3% Triton X-100 in PBS at 4° C. overnight. Primary antibody was aspirated, and cells were washed with PBS. Cells were incubated for 2 hours at room temperature with goat anti-rabbit Alexa Fluor Plus™ 647 fluorescent secondary antibody at a concentration of 5 μg/mL in 1% BSA, 0.3% Triton X-100 in PBS. Cells were then washed with PBS; Hoechst 33342 stain was diluted to a concentration of 1:1000 in PBS and added to cells for 15 min at room temperature. Cells were then imaged using a 20× water objective on the PerkinElmer Phenix HCS imaging system. […] CDI=(A+B)/(AB), synergy was determined with a CDI<0.8, additivity was 0.8-1.2, and antagonism was defined by a CDI>1.2. Welch's t-test statistical analysis was used to determine significance, where **=P≤0.01.

DLD1CHD1L-OE cells = experiment: DNA damage by γ-H2AX immunofluorescence; type: cell-based, human; conditions: 6 h; for DNA damage (γ-H2AX), combination with SN-38: compound 10 μM + SN-38 1 μM, vs SN-38 alone
Description: as §1, §2

[1] = Aqueous solubility in PBS; type: physicochemical; conditions: aqueous with cosolvent or surfactant or cyclodextrin; 10% DMSO in PBS (pH 7.4)
Description: The measurement of solubility in PBS was conducted in duplicate experiments. The consensus LogP (CLogP) values were obtained using the SwissADME web tools. [Daina et al., 2017]

[2] = Pharmacokinetics in CD-1 mice
Description: Whole blood was harvested at specific time points and the separated plasma frozen at −80° C. for storage or used for LC-MS/MS analysis.

[3] = Accumulation in SW620 xenograft tumors and liver; type: in vivo, athymic nude mice; conditions: 50 mg/kg i.p. QD 5 days, n=4
Description: Growth was monitored with caliper measurements 3× per week. […] Treatments were administered i.p. QD over five days. Mice were sacrificed 2 h after the final dose on day five of the treatment.

[4] = test system: VimPro-GFP SW620 xenograft tumors; experiment: Pharmacodynamic Western blot of xenograft tumor tissue; type: in vivo, athymic nude mice; conditions: 50 mg/kg i.p. QD 5 days
Description: CRC cell lines and homogenized tumor tissue samples from mice were resuspended in RIPA lysis buffer (20 mM Tris-HCl (pH 7.5), 150 mM NaCl, 1 mM Na2EDTA, 1 mM EGTA, 1% NP-40, 1% sodium deoxycholate, 2.5 mM sodium pyrophosphate, 1 mM b-glycerophosphate, 1 mM Na3VO4, 0.1 mM PMSF. Protein concentration was determined using the Pierce™ BCA protein assay kit (ThermoFisher, Waltham, Mass.). Forty micrograms of sample were run on 10% Bis-Tris gels. Following electrophoresis, the proteins were transferred to a nitrocellulose membrane. The membranes were blocked at room temperature with 5% non-fat milk in TBS/Tween® 20 (TBST contains 20 mM Tris, 150 mM NaCl, and 0.1% Tween®20 (Croda International PLC, Snaith, UK) for 1 hour at room temperature. Membranes were washed three times with TBST. Blots were incubated with the appropriate primary antibody in 5% nonfat milk in TBST overnight at 4° C. Membranes were washed three times with TBST and then incubated with appropriate secondary antibody for one hour. Membranes were washed again with TBST three times. […]
Two million VimPro-GFP SW620 cells suspended in 100 μL of a 1:1 mixture of Matrigel® matrix (Corning Life Sciences, Corning, N.Y.) and RPMI 1640 were injected into the flanks of 9-week old female athymic nude mice (Nude-Foxn1nu (069)) (Envigo, Huntingdon, Cambridgeshire, UK). Growth was monitored with caliper measurements 3× per week. […]

With Cc1cc(Nc2ccc(NC(=O)Cc3cccs3)cc2)nc(N2CCCC2)n1 [Compound 6, N-(4-((6-methyl-2-(pyrrolidin-1-yl)pyrimidin-4-yl)amino)phenyl)-2-(thiophen-2-yl)acetamide] the “DNA damage (γ-H2AX), combination with SN38” value (DLD1CHD1L-EV cells) was “nor does it synergize with SN38”, the “DNA damage (γ-H2AX), compound alone” value (DLD1CHD1L-EV cells) was “does not induce significant DNA damage” and the “DNA damage (γ-H2AX), combination with etoposide” value (DLD1CHD1L-EV cells; etoposide 10 μM) was “significant synergy”. The “DNA damage (γ-H2AX activity), compound alone” value (DLD1CHD1L-OE cells; 10 μM) was “no significant DNA damage”, the “DNA damage (γ-H2AX), combination with SN-38” value (DLD1CHD1L-OE cells) was “synergized” and the “DNA damage (γ-H2AX), combination with SN-38” value (DLD1CHD1L-OE cells; listed as 6.0) was “synergy”. For the same compound, the “DNA damage (γ-H2AX), combination with etoposide” value (DLD1CHD1L-OE cells; compound 10 μM + etoposide 10 μM, vs etoposide alone) was “synergized”, the “DNA damage (γ-H2AX), combination with oxaliplatin” value (DLD1CHD1L-OE cells; compound 10 μM + oxaliplatin 10 μM) was “no synergy” and the solubility [1] was 700 µg/mL (≈ 1780 µM). For the same compound, the AUC(0-t) ([2]; female, CD-1, mouse, plasma, ip, 50 mg/kg) was 80300 ng·h/mL, the Cmax ([2]; female, CD-1, mouse, plasma, ip, 50 mg/kg, CMax (ng/mL), single i.p. 50 mg/kg) was ~30000 ng/mL and the “CMax (ng/mL)” value ([2]; plasma, single i.p. 50 mg/kg, 50 mg/kg) was 29,900 ng/mL. For the same compound, the “CL” value ([2]; single i.p. 50 mg/kg) was 10.3 mL/min/kg, the “V2” value ([2]; single i.p. 50 mg/kg) was 2.7 L/kg and the “concentration accumulated in SW620 tumors” value [3] was 10,533±5,579 ng/mL. The “epithelial marker ZO-1 and cleaved caspase 3 in tumor tissue” value [4] was “not statistically significant, upregulation of the epithelial marker ZO-1 and induction of cleaved caspase 3” and the “mesenchymal markers vimentin, vimentin reporter (VimPro-GFP) and slug in tumor tissue” value [4] was “significant downregulation”.
